Source: ChEMBL document CHEMBL1148566, “Stereoselective synthesis and glycosidase inhibitory activity of 3,4-dihydroxy-pyrrolidin-2-one, 3,4-dihydroxy-piperidin-2-one and 1,2-dihydroxy-pyrrolizidin-3-one” (Bioorg Med Chem Lett, 2006)
Calls of active or inactive are those of the source. No cut-off for these calls is given here.

Tests used:
[1] = tested on: Saccharomyces cerevisiae; assay: Inhibitory activity against alpha-glucosidase in yeast; settings: concentration not given here
[2] = target: T1, Alpha-galactosidase (Escherichia coli K-12) (UniProt P06720); assay: Inhibitory activity against alpha-galactosidase in Escherichia coli at 1 mM
T1 sequence (whole entry): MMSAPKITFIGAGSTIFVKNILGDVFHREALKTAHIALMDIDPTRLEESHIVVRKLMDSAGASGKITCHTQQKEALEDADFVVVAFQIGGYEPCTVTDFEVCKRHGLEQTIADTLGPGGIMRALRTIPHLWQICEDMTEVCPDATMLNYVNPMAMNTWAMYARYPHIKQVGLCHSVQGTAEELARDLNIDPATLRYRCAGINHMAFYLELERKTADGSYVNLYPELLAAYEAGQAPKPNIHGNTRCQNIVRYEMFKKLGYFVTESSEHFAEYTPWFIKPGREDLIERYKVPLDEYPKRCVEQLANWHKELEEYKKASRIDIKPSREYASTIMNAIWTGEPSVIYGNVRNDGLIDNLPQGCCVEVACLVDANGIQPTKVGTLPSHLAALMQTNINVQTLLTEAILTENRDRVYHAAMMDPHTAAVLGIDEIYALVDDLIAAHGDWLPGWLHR

[3] = target: Alpha-galactosidase (Oryza sativa Japonica Group) (UniProt Q9FXT4); assay: Inhibitory activity against alpha-galactosidase in rice at 1 mM
[4] = target: Glucoamylase (Aspergillus niger) (UniProt P69328); assay: Inhibitory activity against amyloglucosidase in Aspergillus niger at 1 mM
[5] = tested on: Beta-hexosaminidase (Canavalia ensiformis); assay: Inhibitory activity against beta-N-acetylglucosaminidase in jack beans at 1 mM
[6] = target: T2, Tissue alpha-L-fucosidase (Bos taurus) (UniProt Q2KIM0); assay: Inhibitory activity against alpha-L-fucosidase in bovine brain at 1 mM
T2 sequence (whole entry): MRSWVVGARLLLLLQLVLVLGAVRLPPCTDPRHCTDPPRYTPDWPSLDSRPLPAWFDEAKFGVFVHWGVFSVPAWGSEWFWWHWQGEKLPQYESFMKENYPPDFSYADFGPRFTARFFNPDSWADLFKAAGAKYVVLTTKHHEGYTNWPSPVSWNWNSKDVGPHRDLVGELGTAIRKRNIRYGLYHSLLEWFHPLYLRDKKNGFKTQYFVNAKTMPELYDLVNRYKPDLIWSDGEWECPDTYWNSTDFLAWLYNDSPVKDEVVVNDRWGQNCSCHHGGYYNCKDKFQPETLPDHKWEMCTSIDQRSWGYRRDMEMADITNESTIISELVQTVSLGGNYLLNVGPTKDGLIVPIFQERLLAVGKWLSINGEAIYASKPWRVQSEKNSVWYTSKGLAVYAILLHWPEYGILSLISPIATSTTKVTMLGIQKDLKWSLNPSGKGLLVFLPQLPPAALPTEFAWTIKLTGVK

[7] = Inhibitory activity against beta-mannosidase in Helix pomatia at 1 mM
[8] = target: T3, Beta-galactosidase/ beta-glucuronidase (Aspergillus oryzae (strain ATCC 42149 / RIB 40)) (UniProt Q2TXB7); assay: Inhibitory activity against beta-galactosidase in Aspergillus oryzae at 1 mM
T3 sequence (whole entry): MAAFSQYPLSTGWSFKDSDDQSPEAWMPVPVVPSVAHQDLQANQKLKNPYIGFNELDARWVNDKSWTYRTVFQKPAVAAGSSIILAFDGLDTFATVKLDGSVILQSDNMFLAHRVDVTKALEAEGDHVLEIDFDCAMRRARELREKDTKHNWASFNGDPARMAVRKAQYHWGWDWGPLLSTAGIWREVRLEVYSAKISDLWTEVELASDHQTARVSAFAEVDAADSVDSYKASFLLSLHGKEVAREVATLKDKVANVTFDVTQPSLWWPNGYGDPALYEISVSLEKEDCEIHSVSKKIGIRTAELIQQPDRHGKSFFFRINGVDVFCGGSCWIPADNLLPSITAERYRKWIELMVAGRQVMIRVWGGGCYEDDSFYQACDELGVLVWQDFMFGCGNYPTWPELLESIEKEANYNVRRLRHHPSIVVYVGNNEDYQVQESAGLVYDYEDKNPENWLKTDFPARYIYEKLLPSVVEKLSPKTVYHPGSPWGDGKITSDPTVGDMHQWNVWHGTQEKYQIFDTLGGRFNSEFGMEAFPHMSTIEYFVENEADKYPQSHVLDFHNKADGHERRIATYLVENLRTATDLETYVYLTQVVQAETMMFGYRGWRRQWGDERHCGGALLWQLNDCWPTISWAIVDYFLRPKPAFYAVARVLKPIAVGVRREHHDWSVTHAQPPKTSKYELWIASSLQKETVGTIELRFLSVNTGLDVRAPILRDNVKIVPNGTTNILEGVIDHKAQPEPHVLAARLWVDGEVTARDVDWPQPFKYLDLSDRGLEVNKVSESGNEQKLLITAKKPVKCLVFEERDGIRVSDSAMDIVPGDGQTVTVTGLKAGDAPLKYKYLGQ

[9] = target: T4, Beta-galactosidase (Bos taurus) (UniProt Q58D55); assay: Inhibitory activity against beta-galactosidase in bovine liver at 1 mM
T4 sequence (whole entry): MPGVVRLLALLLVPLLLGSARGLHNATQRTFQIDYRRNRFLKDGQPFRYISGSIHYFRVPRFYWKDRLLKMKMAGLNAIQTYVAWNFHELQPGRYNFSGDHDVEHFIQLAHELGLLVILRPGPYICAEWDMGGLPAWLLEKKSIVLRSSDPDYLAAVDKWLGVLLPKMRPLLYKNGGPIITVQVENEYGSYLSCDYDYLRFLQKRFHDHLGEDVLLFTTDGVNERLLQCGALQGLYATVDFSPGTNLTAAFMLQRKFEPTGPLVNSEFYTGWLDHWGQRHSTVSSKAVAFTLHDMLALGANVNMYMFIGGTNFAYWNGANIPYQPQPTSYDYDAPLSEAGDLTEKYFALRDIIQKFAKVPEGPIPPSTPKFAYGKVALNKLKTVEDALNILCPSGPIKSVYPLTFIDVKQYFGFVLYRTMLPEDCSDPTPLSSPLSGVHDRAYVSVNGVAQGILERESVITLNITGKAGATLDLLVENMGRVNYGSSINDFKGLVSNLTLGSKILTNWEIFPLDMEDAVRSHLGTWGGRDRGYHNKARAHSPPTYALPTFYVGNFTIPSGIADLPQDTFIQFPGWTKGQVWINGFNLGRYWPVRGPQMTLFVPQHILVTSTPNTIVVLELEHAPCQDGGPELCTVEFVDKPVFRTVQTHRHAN

[10] = target: T5, Glucoamylase 1 (Rhizopus oryzae) (UniProt P07683); assay: Inhibitory activity against amyloglucosidase in Rhizopus mold at 1 mM
T5 sequence (whole entry): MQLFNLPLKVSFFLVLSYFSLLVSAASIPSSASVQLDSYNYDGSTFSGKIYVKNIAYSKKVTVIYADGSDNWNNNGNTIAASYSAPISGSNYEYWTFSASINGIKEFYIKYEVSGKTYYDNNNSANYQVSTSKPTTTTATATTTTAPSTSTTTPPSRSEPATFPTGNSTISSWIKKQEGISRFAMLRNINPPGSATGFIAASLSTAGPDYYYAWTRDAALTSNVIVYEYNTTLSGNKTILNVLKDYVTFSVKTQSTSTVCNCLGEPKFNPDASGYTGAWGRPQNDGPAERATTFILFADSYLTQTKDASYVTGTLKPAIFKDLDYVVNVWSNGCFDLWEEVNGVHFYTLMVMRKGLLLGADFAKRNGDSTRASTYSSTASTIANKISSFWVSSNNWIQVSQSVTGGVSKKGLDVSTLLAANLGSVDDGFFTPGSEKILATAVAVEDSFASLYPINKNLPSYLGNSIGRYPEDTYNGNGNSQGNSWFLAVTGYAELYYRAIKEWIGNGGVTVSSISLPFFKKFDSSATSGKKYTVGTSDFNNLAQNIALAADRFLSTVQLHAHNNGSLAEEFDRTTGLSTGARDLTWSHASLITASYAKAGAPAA

[11] = target: Alpha-galactosidase (Coffea arabica) (UniProt Q5DUH8); assay: Inhibitory activity against alpha-galactosidase in coffee beans at 1 mM
[12] = tested on: Beta-hexosaminidase (Bos taurus); assay: Inhibitory activity against beta-N-acetylglucosaminidase in bovine kidney at 1 mM
[13] = target: T6, Exo-1,4-beta-xylosidase xlnD (Aspergillus niger) (UniProt O00089); assay: Inhibitory activity against beta-xylosidase in Aspergillus niger at 1 mM
T6 sequence (whole entry): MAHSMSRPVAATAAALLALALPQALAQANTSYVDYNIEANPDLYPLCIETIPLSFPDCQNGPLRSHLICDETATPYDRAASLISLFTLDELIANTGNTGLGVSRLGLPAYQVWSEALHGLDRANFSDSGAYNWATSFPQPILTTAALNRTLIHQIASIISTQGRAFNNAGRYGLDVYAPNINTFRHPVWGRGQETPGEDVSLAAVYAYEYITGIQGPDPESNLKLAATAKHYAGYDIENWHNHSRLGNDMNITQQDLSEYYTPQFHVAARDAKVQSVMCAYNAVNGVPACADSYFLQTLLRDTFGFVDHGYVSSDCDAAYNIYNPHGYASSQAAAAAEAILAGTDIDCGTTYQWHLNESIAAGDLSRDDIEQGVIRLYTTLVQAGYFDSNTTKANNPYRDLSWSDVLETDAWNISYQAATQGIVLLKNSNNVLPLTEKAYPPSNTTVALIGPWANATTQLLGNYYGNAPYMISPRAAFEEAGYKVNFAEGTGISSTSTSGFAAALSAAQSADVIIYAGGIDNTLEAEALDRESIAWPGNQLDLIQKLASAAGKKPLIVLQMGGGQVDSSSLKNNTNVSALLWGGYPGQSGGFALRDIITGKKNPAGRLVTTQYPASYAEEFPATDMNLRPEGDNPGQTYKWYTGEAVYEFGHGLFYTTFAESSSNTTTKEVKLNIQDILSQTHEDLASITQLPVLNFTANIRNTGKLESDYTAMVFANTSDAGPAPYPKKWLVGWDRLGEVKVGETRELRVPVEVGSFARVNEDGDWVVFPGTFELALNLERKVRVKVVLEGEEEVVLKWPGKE

Alpha-galactosidase (Oryza sativa Japonica Group), sequence (Q9FXT4 whole entry): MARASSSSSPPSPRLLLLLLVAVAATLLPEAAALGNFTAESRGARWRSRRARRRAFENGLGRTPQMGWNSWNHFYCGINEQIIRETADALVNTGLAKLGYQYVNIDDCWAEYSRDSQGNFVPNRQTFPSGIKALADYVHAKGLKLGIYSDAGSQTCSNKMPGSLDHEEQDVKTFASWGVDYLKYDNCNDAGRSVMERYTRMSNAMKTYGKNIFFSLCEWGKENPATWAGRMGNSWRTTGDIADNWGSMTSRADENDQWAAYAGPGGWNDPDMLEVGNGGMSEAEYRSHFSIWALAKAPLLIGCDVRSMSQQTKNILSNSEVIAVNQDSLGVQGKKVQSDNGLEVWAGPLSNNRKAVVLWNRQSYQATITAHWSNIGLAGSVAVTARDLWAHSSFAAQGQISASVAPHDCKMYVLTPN
Alpha-galactosidase (Coffea arabica), sequence (Q5DUH8 as listed by the source): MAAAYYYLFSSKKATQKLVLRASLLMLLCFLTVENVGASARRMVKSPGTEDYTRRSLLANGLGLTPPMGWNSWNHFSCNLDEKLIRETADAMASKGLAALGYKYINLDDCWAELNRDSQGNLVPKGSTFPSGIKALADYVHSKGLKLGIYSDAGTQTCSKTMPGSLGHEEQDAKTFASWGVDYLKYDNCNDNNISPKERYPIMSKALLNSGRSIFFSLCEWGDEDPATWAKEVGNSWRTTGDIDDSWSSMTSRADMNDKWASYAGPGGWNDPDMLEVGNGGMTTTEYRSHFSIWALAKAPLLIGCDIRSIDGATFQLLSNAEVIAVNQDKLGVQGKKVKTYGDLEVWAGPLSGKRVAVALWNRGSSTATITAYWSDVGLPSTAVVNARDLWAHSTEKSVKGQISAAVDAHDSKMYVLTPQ
Glucoamylase (Aspergillus niger), sequence (P69328 whole entry): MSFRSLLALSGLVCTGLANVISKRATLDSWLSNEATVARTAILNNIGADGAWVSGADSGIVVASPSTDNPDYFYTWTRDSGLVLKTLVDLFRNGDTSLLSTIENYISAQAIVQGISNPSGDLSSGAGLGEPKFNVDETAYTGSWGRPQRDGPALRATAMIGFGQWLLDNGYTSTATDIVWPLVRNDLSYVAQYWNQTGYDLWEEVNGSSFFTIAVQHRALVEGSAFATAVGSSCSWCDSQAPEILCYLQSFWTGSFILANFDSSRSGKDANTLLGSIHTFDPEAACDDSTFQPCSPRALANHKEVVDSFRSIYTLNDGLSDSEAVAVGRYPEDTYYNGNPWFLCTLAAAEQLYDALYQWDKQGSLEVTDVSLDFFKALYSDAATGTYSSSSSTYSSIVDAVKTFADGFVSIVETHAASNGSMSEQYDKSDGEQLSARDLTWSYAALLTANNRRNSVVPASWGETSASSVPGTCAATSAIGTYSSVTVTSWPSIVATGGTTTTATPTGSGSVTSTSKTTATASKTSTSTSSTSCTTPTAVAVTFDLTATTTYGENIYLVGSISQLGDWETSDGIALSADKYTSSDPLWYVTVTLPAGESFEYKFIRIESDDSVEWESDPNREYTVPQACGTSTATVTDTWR

Structure (SMILES) | inhibition [1] [%] | Activity [2] | Activity [3] | Activity [4] | Activity [5] | Activity [6] | Activity [7] | Activity [8] | Activity [9] | Activity [10] | Activity [11] | Activity [12] | Activity [13]
C[C@@H]1NC(=O)C(C)(O)C1O (some centres not stated) | 48 | inactive | inactive | inactive | inactive | inactive | inactive | inactive | inactive | inactive | inactive | inactive | inactive
CC1(O)C(=O)N2CCCC2C1O (configuration not stated) | 45 | inactive | inactive | inactive | inactive | inactive | inactive | inactive | inactive | inactive | inactive | inactive | inactive
C[C@@H]1CNC(=O)C(C)(O)C1O (some centres not stated) | 46 | inactive | inactive | inactive | inactive | inactive | inactive | inactive | inactive | inactive | inactive | inactive | inactive
CC(C)[C@@H]1NC(=O)C(C)(O)C1O (some centres not stated) | 51 | inactive | inactive | inactive | inactive | inactive | inactive | inactive | inactive | inactive | inactive | inactive | inactive
